# Experimental data published in paper PMC5650142, “GPR40 partial agonists and AgoPAMs: Differentiating effects on glucose and hormonal secretions in the rodent” (PLoS ONE, 2017).
# Where “and” joins values, the source holds several entries; their conditions need not be identical. Equal values may be shown once. Read-outs that look alike come from different tables or passages of the source.
# How the values were obtained:
# [1] = target: T1, rat GPR40 (Rattus norvegicus, UniProt Q8K3T4); test: Rat GPR40 IP1 accumulation assay; format: cell-based
# T1 construct: expressed in transfected cells; host or cells: CHO-K1 (methods)
# Procedure: (§1) Stable cell lines expressing human GPR40 (hGPR40/HEK293), mouse GPR40 (mGPR40/CHO-K1), and rat GPR40 (rGPR40/CHO-K1) were cultured in DMEM media supplemented with 10% FBS, glutamine, non-essential amino acids, and penicillin/streptomycin. hGPR40/HEK293 & mGPR40/CHO-K1 cell media was supplemented with […] G418 (Life Technologies), while rGPR40/CHO-K1 cells were grown in […] blasticidin plus […] hygromycin (Life Technologies). Cell stocks were maintained and grown in a sub-confluent state using standard cell culture procedures. The day before the experiment, the cells were harvested with non-enzymatic cell dissociation buffer and re-suspended in DMEM supplemented with 10% FBS, glutamine, non-essential amino acids, penicillin/streptomycin at 0.15, 0.2 and 0.3 million cells per ml for human, mouse, and rat GPR40, respectively. […] The seeded plates were incubated overnight at 37 C.
# (§2) On the day of the experiment, the growth media was removed from the assay by gently patting the assay plates on an absorbent sheet and 10 μl of IP1 stimulation buffer (Cis Bio IP-one Tb HTRF kit) supplemented with 50 mM LiCl is added to each well. Test compounds dissolved in DMSO were serially diluted in ½ log increments starting from 2 mM or 0.2 mM and 50 nl of the compound dilution was acoustically added to each well (final starting concentration 10 μM or 1 μM). Plates were then incubated for 60 minutes at room temperature and 10 μl of detection buffer (prepared as described in the Tb kit) is added to each well. The plates are then incubated one additional hour at room temperature. […] For each assay, a standard curve plate in which IP1 is titrated is also included. […] The percent activity at each concentration of test compound is determined using 0% activation (basal activity) determined in those wells that contain DMSO alone, while 100% activity is determined in wells that contained a concentration of a partial allosteric agonist know to activate GPR40. The % activity is then plotted versus the concentration of test compound and the dose response curve fitted to a standard 4-parameter non-linear regression model using a custom in-house developed software package (Merck & Co., Inc., MRL, Kenilworth, NJ, USA). Maximal % activity and EC50 are then determined for each test compound.
# [2] = target: T2, mouse GPR40 (Mus musculus, UniProt Q76JU9); test: Mouse GPR40 IP1 accumulation assay; format: cell-based
# T2 construct: expressed in transfected cells; host or cells: CHO-K1 (methods)
# Procedure: as §1, §2
# [3] = target: T3, human GPR40 (Homo sapiens, UniProt O14842); test: Human GPR40 IP1 accumulation assay; format: cell-based; parameters: expressed in transfected cells
# Procedure: as §1, §2
# [4] = target: T3, human GPR40; test: GPR40 binding assay, partial agonist tracer [3H]L358; parameters: expressed in transfected cells; host or cells: CHO / CHO-K1 cells, membrane preparation; conditions: radioligand L-001533358;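 as to %Bound: 100% is tracer binding with DMSO alone and 0% is full displacement by a standard compound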
# Procedure: Two small molecule tracers, the partial agonist [3H][…] and the AgoPAM [3H]25, are used to measure compound affinity at each site as described previously. Because of the allosteric coupling of the two sites and the nature of the assay, addition of a compound will either displace (binds to same site) or augment (binds to allosterically coupled site) radiotracer. Membranes expressing GPR40 were prepared from CHO cells stably expressing human GPR40. […] Sigma P8830) and were homogenized in 50 ml aliquots with a motor-driven glass Dounce homogenizer, 15 strokes at 1900 rpm on wet ice, repeating once. Homogenates were centrifuged at 2200 rpm for 10 min at 4°C. Supernatants were carefully removed and pooled. Homogenization and centrifugation were repeated until the debris pellet was translucent to maximize membrane recovery. Supernatants were then centrifuged at […] rpm for 20 min. at 4°C. […] Protein concentration was determined by Pierce BCA kit. […] The beads and membrane mixture is then vigorously mixed for 30 minutes at room temperature prior to addition to the assay. […] Next, 15 μl of the radioligand and 35 μl of the beads/membranes solution is added to each well. The assay plates are then sealed and incubated for 30 minutes at room temperature on an orbital shaker. The plates are allowed to settle for 16 hours and then counted on a TopCount scintillation counter (PE). […] Maximal % bound and IC50 are then determined for each test compound. 5 μg/well membrane together with 200 μg/well of PVT WGA SPA beads (GE #RPNG-0001) were suspended in a white 96 well plate with a final concentration of 50 μl/well in assay buffer (50 mM Tris, 10 mM MgCl2, and 2 mM EDTA). […] The plate is briefly mixed and incubated for 3-18 h at room temperature, before it is read on a MicroBeta plate counter (Perkin Elmer, MS, USA).
# [5] = maximal % activity vs in-house partial agonist control
# T2 sequence (Q76JU9 whole entry): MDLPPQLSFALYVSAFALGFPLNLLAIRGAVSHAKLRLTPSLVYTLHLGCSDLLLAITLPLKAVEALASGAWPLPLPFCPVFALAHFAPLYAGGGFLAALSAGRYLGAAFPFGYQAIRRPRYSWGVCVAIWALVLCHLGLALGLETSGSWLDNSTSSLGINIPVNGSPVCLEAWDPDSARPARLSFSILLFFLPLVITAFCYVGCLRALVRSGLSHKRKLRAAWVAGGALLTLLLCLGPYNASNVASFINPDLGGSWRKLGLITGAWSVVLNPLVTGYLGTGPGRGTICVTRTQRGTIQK
# T1 sequence (Q8K3T4 whole entry): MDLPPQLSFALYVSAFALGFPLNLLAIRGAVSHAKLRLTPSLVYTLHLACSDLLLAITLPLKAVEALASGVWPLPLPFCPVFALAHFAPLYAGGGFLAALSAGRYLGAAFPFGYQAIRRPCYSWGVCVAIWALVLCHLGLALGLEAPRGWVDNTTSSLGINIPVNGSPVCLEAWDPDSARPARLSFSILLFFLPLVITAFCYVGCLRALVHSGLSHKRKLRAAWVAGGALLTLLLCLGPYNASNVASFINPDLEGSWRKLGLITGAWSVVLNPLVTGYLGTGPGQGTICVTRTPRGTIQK
# T3 sequence (O14842 whole entry): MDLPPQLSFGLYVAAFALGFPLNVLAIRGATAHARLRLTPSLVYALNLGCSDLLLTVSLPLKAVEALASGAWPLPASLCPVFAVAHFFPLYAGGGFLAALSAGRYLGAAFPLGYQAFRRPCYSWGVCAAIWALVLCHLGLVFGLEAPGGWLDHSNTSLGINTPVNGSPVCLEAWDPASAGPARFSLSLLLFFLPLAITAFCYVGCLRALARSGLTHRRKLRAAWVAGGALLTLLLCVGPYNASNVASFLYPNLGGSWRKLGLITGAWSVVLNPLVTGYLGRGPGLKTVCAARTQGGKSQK
structure (smiles),measurement,setting,value
COc1ccc(F)c(-c2ccc([C@@H]3CCc4ccc([C@H](C5CC5)[C@H](C)C(=O)O)cc4O3)cc2)c1 [AP1],Rat GPR40 Receptor Activation (%),[1]; dose 1.50E-11 M,7%
same,Rat GPR40 Receptor Activation (%),[1]; dose 1.55E-08 M,588%
same,Rat GPR40 Receptor Activation (%),[1]; dose 2.43E-10 M,161%
same,Rat GPR40 Receptor Activation (%),[1]; dose 2.49E-07 M,616%
same,Rat GPR40 Receptor Activation (%),[1]; dose 3.89E-09 M,549%
same,Rat GPR40 Receptor Activation (%),[1]; dose 4.00E-12 M,0.25%
same,Rat GPR40 Receptor Activation (%),[1]; dose 6.10E-11 M,52%
same,Rat GPR40 Receptor Activation (%),[1]; dose 6.22E-08 M,567%
same,Rat GPR40 Receptor Activation (%),[1]; dose 9.72E-10 M,357%
same,Rat GPR40 Receptor Activation (%),[1]; dose 9.95E-07 M,567%
same,"%Act, Rat GPR40, Functional Assay",[1]; individual determinations,391% and 456% and 671% and 592% and 636% and 716% and 674% and 356% and 385% and 437%
same,EC50,"[1]; individual determinations, read-out: EC50 (nM), Rat GPR40, Functional Assay",0.45 nM and 0.46 nM and 0.58 nM and 0.61 nM and 0.72 nM and 0.95 nM and 1.15 nM and 0.31 nM and 0.33 nM and 0.36 nM
same,"Efficacy (% Activation), Rat",[1]; [5],(531%)
same,EC50,"[1]; mean ± SD, n = 2–20, IP accumulation, read-out: Potency [EC50, nM] ± SD, Rat",0.59 ± 0.28 nM
same,Mouse GPR40 Receptor Activation (%),[2]; dose 1.50E-11 M,13%
same,Mouse GPR40 Receptor Activation (%),[2]; dose 1.55E-08 M,531%
same,Mouse GPR40 Receptor Activation (%),[2]; dose 2.43E-10 M,207%
same,Mouse GPR40 Receptor Activation (%),[2]; dose 2.49E-07 M,540%
same,Mouse GPR40 Receptor Activation (%),[2]; dose 3.89E-09 M,508%
same,Mouse GPR40 Receptor Activation (%),[2]; dose 4.00E-12 M,-3.79%
same,Mouse GPR40 Receptor Activation (%),[2]; dose 6.10E-11 M,72%
same,Mouse GPR40 Receptor Activation (%),[2]; dose 6.22E-08 M,489%
same,Mouse GPR40 Receptor Activation (%),[2]; dose 9.72E-10 M,327%
same,"%Act, Mouse GPR40, Functional Assay",[2]; individual determinations,325% and 647% and 612% and 390% and 593% and 587% and 801% and 441% and 392% and 533%
same,EC50,"[2]; individual determinations, read-out: EC50 (nM), Mouse GPR40, Functional Assay",0.44 nM and 0.48 nM and 0.55 nM and 0.56 nM and 0.66 nM and 0.74 nM and 0.33 nM and 0.41 nM and 0.43 nM
same,"Efficacy (% Activation), Mouse",[2]; [5],(532%)
same,EC50,"[2]; mean ± SD, n = 2–20, IP accumulation, read-out: Potency [EC50, nM] ± SD, Mouse",0.51 ± 0.12 nM
same,Human GPR40 Receptor Activation (%),[3]; dose 1.50E-11 M,35%
same,Human GPR40 Receptor Activation (%),[3]; dose 1.55E-08 M,357%
same,Human GPR40 Receptor Activation (%),[3]; dose 2.43E-10 M,231%
same,Human GPR40 Receptor Activation (%),[3]; dose 2.49E-07 M,381%
same,Human GPR40 Receptor Activation (%),[3]; dose 3.89E-09 M,357%
same,Human GPR40 Receptor Activation (%),[3]; dose 4.00E-12 M,5%
same,Human GPR40 Receptor Activation (%),[3]; dose 6.10E-11 M,154%
same,Human GPR40 Receptor Activation (%),[3]; dose 6.22E-08 M,356%
same,Human GPR40 Receptor Activation (%),[3]; dose 9.72E-10 M,323%
same,Human GPR40 Receptor Activation (%),[3]; dose 9.95E-07 M,404%
same,"%Act, HUMAN GPR40, Functional Assay",[3]; individual determinations,254% and 368% and 338% and 409% and 464% and 275% and 405% and 364% and 355%
same,EC50,"[3]; individual determinations, read-out: EC50 (nM), HUMAN GPR40, Functional Assay",0.13 nM and 0.14 nM and 0.18 nM and 0.19 nM and 0.22 nM and 0.08 nM and 0.09 nM and 0.12 nM
same,"Efficacy (% Activation), Human",[3]; [5],(359%)
same,EC50,"[3]; mean ± SD, n = 2–20, IP accumulation, read-out: Potency [EC50, nM] ± SD, Human",0.15 ± 0.05 nM
same,% Bound Normalized to 100,[4]; dose 0.318285 nM,100.72%
same,%Bound,[4]; dose 0.318285 nM,106.70%
same,% Bound Normalized to 100,[4]; dose 1.00578 nM,118.24%
same,%Bound,[4]; dose 1.00578 nM,124.21%
same,% Bound Normalized to 100,[4]; dose 3.17827 nM,131.70%
same,%Bound,[4]; dose 3.17827 nM,137.67%
same,% Bound Normalized to 100,[4]; dose 10.0433 nM,152.63%
same,%Bound,[4]; dose 10.0433 nM,158.61%
same,% Bound Normalized to 100,[4]; dose 31.7369 nM,164.17%
same,%Bound,[4]; dose 31.7369 nM,170.14%
same,% Bound Normalized to 100,[4]; dose 100.289 nM,171.43%
same,%Bound,[4]; dose 100.289 nM,177.41%
same,% Bound Normalized to 100,[4]; dose 316.912 nM,183.61%
same,%Bound,[4]; dose 316.912 nM,189.59%
same,% Bound Normalized to 100,[4]; dose 1001.44 nM,174.85%
same,%Bound,[4]; dose 1001.44 nM,180.83%
same,% Bound Normalized to 100,[4]; dose 3164.56 nM,169.51%
same,%Bound,[4]; dose 3164.56 nM,175.49%
same,% Bound Normalized to 100,[4]; dose 10000 nM,192.80%
same,%Bound,[4]; dose 10000 nM,198.77%
